This is an account of results in ChEMBL document CHEMBL3351537, “Design, synthesis and biological evaluation of 4-fluoropyrrolidine-2-carbonitrile and octahydrocyclopenta[b]pyrrole-2-carbonitrile derivatives as dipeptidyl peptidase IV inhibitors” (Eur J Med Chem, 2014).

One assay deals with T1, Prolyl endopeptidase FAP (Homo sapiens, UniProt Q12884).
T1 sequence (Q12884 whole entry): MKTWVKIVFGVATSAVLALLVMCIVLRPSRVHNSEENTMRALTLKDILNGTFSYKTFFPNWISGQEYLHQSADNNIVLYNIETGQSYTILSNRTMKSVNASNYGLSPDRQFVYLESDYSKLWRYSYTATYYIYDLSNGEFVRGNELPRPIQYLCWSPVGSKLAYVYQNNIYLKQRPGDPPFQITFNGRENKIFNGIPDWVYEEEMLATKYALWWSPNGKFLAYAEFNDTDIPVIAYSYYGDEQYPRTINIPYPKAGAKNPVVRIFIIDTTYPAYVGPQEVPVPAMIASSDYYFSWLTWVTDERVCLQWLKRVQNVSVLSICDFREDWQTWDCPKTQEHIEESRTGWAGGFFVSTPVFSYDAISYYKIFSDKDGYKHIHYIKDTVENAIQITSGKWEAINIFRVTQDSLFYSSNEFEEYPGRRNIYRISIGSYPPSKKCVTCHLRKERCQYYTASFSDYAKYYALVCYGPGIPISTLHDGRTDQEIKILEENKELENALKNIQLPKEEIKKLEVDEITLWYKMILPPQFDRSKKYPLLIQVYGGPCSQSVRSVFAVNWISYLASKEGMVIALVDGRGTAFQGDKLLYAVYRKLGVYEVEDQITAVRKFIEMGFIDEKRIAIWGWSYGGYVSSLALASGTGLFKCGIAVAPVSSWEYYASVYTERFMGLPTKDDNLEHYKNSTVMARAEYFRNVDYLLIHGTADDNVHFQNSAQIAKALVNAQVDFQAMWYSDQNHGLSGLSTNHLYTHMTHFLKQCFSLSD
As to the kind of experiment: Inhibition of FAP (unknown origin) expressed in baculovirus expression system using Nle-Pro-AMC as substrate by continuous fluorometric assay. The settings on record: for pIC50: read-out: IC50.

In another assay the target is Dipeptidyl peptidase 2 (Homo sapiens, UniProt Q9UHL4). The assay can be described thus: Inhibition of DPP7 (unknown origin) expressed in baculovirus expression system using Nle-Pro-AMC as substrate by continuous fluorometric assay.
The target in the next assay is Dipeptidyl peptidase 4 (Homo sapiens, UniProt P27487). The assay can be described thus: Inhibition of human recombinant DPP4 expressed in baculovirus expression system using Ala-Pro-AMC as substrate by continuous fluorometric assay.
In assay [1] the test system is Mus musculus. As to the kind of experiment: Reduction in plasma triglyceride content in C57BKS db/db mouse at 15 mg/kg/day, po (reference value: 1.01 +/- 0.09 mM). The format is functional.
The subject of assay [2] is Mus musculus. As to the kind of experiment: Reduction in fasting blood glucose level in C57BKS db/db mouse at 15 mg/kg/day, po (Rvb =23.0 +/- 1.0 mM). The format is functional.
Assay [3] has as its system Mus musculus. The assay can be described thus: Reduction in free fatty acid in C57BKS db/db mouse at 15 mg/kg/day, po (reference value: 1.46 +/- 0.10 mM). Type of assay: functional.
Assay [4] concerns Mus musculus. As to the kind of experiment: Reduction in total cholesterol content in C57BKS db/db mouse at 15 mg/kg/day, po. Type of assay: functional, organism-based.
The subject of assay [5] is Mus musculus. As to the kind of experiment: Reduction in random blood glucose level in C57BKS db/db mouse at 15 mg/kg/day, po (Rvb =23.3 +/- 1.0 mM). The format is functional.

SMILES strings stand for the structures. pIC50: −log10 of the molar value. The source made the active and inactive calls. No cut-off for these calls is given here.

Sequence of Dipeptidyl peptidase 4 (P27487 whole entry): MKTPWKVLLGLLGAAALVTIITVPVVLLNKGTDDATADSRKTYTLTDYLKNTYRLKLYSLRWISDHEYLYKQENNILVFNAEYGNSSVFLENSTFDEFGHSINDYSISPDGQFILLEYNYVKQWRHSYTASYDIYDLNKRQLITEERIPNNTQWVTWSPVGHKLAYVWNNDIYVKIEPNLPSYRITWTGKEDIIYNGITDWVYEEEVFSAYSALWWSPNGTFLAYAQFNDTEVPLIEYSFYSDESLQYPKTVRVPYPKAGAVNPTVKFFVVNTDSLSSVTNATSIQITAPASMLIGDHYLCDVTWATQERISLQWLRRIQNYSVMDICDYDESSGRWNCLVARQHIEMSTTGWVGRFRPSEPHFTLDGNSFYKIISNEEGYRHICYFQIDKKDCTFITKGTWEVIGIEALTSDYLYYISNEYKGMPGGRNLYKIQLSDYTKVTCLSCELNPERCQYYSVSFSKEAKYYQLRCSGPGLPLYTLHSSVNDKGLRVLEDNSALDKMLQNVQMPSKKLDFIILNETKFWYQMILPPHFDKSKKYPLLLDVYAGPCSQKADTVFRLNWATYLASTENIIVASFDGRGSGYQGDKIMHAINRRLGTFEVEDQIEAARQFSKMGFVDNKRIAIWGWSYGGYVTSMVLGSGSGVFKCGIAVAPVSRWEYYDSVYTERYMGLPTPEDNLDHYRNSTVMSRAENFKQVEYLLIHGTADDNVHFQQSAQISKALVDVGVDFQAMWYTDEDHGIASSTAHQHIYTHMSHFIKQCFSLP

On to `N#C[C@@H]1C[C@@H]2CCC[C@@H]2N1C(=O)C[C@H](N)Cc1cccc(F)c1`, for which the IC50 entry against Prolyl endopeptidase FAP and against Dipeptidyl peptidase 2 was “Not Active” throughout.

`N#C[C@@H]1C[C@@H]2CCC[C@@H]2N1C(=O)C[C@H](N)Cc1ccccc1Cl`: the IC50 result against Dipeptidyl peptidase 2 is “Not Active”.

In the case of `N#C[C@@H]1C[C@H](F)CN1C(=O)C[C@H](N)Cc1ccccc1`, the IC50 entry at Dipeptidyl peptidase 2 is recorded as “Not Active”. As to `Cc1ccccc1C[C@@H](N)CC(=O)N1[C@H](C#N)C[C@@H]2CCC[C@@H]21`, the pIC50 at Prolyl endopeptidase FAP was 3.96. On Dipeptidyl peptidase 2, the IC50 result is listed as “Not Active”. For the compound `COc1ccc(C[C@@H](N)CC(=O)N2[C@H](C#N)C[C@@H]3CCC[C@@H]32)cc1`, the IC50 entry at Dipeptidyl peptidase 4 is listed as “Not Active”. Regarding `N#C[C@@H]1CCCN1C(=O)CNC12CC3CC(CC(O)(C3)C1)C2` [VILDAGLIPTIN], the Activity is recorded as 0.75 mM in the assay with Mus musculus [1], 18.5 mM with Mus musculus [2], 1.07 mEq/L in the assay with Mus musculus [3] and 22.2 mM in the assay with Mus musculus [5]. The result with Mus musculus [4] was inactive.

As for `N#C[C@@H]1C[C@@H]2CCC[C@@H]2N1C(=O)C[C@H](N)Cc1ccc(F)cc1`, the pIC50 at Prolyl endopeptidase FAP is 3.81.
